In PMC12048553, “Labels as a feature: Network homophily for systematically annotating human GPCR drug-target interactions” (Nature Communications, 2025):

Molecular target: CHRM3 (Homo sapiens, UniProt P20309)
Assay: yeast-expressed receptor NanoLuc screen at […], |Z-score| […]
Assay type: cell-based

CHRM3, sequence (P20309 whole entry): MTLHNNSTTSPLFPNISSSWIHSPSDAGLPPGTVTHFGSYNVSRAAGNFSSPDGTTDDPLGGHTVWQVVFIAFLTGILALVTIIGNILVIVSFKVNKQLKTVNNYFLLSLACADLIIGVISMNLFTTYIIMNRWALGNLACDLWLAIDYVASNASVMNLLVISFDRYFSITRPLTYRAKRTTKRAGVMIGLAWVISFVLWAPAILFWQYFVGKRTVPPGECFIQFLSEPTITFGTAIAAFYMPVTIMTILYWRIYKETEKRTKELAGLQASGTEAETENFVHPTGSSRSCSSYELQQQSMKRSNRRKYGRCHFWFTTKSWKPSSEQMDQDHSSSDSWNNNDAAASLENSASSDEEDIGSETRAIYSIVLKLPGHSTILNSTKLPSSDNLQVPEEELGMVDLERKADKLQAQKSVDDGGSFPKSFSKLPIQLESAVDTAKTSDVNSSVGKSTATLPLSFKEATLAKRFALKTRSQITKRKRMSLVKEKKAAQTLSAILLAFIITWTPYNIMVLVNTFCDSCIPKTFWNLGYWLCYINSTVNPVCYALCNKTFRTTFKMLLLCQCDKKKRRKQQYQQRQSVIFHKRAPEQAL

CC(C)OC(=O)CCC/C=C\C[C@@H]1[C@@H](CC[C@@H](O)CCc2ccccc2)[C@H](O)C[C@@H]1O [Latanoprost]
yeast-expressed receptor NanoLuc screen at 10 uM, |Z-score| > 3: Latanoprost for mitigating increased intraoccular pressure may be partially explained by the observed interaction with CHRM3
